Laboratory results reported in paper PMC6367750 (Future Medicinal Chemistry, 2018).
Read-outs that look alike come from different tables or passages of the source.

Columns and labels:
MV4–11 [1] = assay: Cell cycle analysis; assay type: cell-based; conditions: MV4–11, 24 h
phospho-STAT5 = assay: Western blot of phospho-STAT5 in MV4–11 cells; assay type: cell-based
FLT3 = target: T1, FLT3 (Homo sapiens, UniProt P36888); assay: DiscoverX ScanEdge kinase profiling; assay type: binding; conditions: read-out: percent inhibition FLT3
T1 sequence (P36888 27-993): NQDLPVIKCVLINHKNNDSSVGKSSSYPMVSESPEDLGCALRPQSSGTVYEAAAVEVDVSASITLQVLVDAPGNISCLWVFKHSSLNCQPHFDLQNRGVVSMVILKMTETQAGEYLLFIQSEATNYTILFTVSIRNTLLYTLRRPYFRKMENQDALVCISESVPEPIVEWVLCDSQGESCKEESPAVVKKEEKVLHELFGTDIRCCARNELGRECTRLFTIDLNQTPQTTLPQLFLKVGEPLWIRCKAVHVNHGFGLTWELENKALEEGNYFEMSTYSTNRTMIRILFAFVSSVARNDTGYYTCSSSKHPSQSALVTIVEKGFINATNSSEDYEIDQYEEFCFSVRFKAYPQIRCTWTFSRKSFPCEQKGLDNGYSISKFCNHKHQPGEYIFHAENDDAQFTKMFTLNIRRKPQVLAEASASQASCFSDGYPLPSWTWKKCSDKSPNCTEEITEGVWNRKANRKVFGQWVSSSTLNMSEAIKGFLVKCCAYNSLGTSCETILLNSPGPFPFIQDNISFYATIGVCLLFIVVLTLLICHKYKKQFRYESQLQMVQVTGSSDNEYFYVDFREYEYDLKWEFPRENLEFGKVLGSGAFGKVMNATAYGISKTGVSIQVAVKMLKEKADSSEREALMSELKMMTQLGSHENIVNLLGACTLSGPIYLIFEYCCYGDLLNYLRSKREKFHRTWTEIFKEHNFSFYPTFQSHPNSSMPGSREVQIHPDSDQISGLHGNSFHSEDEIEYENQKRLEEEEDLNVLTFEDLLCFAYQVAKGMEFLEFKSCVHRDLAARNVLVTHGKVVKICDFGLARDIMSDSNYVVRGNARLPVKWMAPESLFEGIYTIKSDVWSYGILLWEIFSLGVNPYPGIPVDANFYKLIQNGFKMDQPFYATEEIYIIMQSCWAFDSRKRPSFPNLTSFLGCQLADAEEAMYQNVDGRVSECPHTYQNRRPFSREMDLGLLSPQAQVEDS

[2] = test system: K562, NOMO-1, HL60 and MOLT4; assay: Antiproliferative activity, non-FLT3-driven leukemia cell lines; assay type: cell-based; conditions: 72 h, read-out: IC50 range over non-FLT3-driven leukemia cell lines
FLT3-ITD [3] = target: T2, FLT3-ITD (Homo sapiens, UniProt P36888, ITD); assay: FLT3-ITD kinase inhibition, ADP-Glo kinase assay; assay type: biochemical; conditions: read-out: %FLT3 inhibition FLT3-ITD
T2 sequence (P36888 564-993): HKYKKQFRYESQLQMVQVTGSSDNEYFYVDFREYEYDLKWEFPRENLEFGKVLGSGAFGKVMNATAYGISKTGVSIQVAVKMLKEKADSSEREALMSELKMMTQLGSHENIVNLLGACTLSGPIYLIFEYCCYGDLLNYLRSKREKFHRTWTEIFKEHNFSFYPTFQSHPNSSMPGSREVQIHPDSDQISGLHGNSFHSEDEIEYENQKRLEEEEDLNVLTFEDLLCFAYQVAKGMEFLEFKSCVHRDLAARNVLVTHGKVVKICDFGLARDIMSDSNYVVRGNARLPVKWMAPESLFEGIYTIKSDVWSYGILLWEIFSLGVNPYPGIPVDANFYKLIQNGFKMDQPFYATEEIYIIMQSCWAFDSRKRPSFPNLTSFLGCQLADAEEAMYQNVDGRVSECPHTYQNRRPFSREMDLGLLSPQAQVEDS

JAK3 = JAK3 (Homo sapiens, UniProt P52333); assay: DiscoverX ScanEdge kinase profiling; assay type: binding; conditions: read-out: percent inhibition JAK3
TOPK = assay: Western blot of TOPK protein in MV4–11 cells; assay type: cell-based
Molm14 = assay: Antiproliferative activity, CellTiter-Blue; assay type: cell-based
TOPK mRNA = assay: Real-time PCR of TOPK mRNA in MV4–11 cells; assay type: cell-based; conditions: 24 h
MV4–11 [4] = assay: Antiproliferative activity, CellTiter-Blue; assay type: cell-based; conditions: for AML cell growth inhibition: SAR discussion of Table 1
[5] = test system: Molm13-res (FLT3 (ITD, D835Y)); assay: Antiproliferative activity, CellTiter-Blue; assay type: cell-based; conditions: 72 h
JAK2 = JAK2 (Homo sapiens, UniProt O60674); assay: DiscoverX ScanEdge kinase profiling; assay type: binding; conditions: read-out: percent inhibition JAK2
MKNK2 = MKNK2 (Homo sapiens, UniProt Q9HBH9); assay: DiscoverX ScanEdge kinase profiling; assay type: binding; conditions: read-out: percent inhibition MKNK2
MV4–11 [6] = conditions: cited from earlier work
FLT3-ITD [7] = target: T3, FLT3-ITD (Homo sapiens, UniProt P36888); assay: FLT3-ITD kinase inhibition, ADP-Glo kinase assay; assay type: biochemical; conditions: SAR discussion of Table 1
T3 sequence (P36888 564-993): T2 sequence (P36888 564-993)

Molm13 = conditions: cited from earlier work
c-Kit = conditions: read-out: IC50 c-Kit; cited from earlier work
FLT3 D835Y = conditions: read-out: IC50 FLT3 D835Y; cited from earlier work
ABL1-nonphosphorylated = ABL1-nonphosphorylated (Homo sapiens, UniProt P00519); conditions: read-out: Kd ABL1-nonphosphorylated; KdELECT; ref Zimmerman et al. [28]; cited from earlier work
ABL1-phosphorylated = ABL1-phosphorylated (Homo sapiens, UniProt P00519); conditions: read-out: Kd ABL1-phosphorylated; KdELECT; ref Zimmerman et al. [28]; cited from earlier work
[8] = Homo sapiens, MOLM-14, 72 h, read-out: IC50 Molm14, 72 h
[9] = Homo sapiens, MV4-11, 72 h, read-out: IC50 MV4–11, 72 h
[10] = read-out: IC50 Molm13-res, 72 h

Sequence of ABL1-phosphorylated (P00519 whole entry): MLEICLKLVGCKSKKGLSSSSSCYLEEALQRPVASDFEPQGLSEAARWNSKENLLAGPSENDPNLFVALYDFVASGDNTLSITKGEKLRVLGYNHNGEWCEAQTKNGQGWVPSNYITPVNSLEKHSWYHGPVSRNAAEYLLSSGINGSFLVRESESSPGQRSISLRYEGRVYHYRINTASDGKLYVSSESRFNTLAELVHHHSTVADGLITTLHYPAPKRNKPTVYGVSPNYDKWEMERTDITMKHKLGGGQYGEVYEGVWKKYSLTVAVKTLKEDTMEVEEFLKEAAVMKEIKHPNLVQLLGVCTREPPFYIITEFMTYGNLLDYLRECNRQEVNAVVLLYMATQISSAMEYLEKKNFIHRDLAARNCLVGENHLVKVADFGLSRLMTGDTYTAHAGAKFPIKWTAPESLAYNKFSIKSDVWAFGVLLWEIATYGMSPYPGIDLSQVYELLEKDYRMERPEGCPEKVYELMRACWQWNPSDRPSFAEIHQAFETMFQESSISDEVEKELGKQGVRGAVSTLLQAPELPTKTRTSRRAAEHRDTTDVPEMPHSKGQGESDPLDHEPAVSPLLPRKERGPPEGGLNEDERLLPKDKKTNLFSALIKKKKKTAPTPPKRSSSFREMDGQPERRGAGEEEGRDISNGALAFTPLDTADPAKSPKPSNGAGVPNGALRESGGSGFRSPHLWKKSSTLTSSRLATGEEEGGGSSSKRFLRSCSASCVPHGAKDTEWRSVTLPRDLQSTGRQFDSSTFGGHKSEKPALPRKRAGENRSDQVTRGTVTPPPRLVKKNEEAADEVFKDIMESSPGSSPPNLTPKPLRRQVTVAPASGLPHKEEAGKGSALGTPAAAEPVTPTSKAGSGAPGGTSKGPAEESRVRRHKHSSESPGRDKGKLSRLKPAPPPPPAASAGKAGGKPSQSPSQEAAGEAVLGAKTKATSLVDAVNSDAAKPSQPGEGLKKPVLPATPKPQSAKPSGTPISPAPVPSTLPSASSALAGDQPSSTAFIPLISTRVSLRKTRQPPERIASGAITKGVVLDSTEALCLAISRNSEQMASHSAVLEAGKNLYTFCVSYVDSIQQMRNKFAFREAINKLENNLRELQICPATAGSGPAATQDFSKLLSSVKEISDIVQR
Sequence of ABL1-nonphosphorylated (P00519 whole entry): as above
Sequence of MKNK2 (Q9HBH9 whole entry): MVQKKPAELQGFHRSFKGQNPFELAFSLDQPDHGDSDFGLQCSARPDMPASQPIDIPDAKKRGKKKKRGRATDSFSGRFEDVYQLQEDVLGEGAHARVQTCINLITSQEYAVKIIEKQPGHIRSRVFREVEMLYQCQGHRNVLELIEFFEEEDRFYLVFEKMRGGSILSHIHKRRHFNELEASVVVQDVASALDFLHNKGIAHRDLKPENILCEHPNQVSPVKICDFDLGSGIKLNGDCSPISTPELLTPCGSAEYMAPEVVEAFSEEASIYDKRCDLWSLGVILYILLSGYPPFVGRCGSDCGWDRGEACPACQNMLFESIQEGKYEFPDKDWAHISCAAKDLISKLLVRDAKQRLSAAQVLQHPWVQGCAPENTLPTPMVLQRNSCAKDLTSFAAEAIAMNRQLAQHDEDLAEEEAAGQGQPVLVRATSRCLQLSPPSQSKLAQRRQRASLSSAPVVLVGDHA
Sequence of JAK2 (O60674 840-1132 limits assumed): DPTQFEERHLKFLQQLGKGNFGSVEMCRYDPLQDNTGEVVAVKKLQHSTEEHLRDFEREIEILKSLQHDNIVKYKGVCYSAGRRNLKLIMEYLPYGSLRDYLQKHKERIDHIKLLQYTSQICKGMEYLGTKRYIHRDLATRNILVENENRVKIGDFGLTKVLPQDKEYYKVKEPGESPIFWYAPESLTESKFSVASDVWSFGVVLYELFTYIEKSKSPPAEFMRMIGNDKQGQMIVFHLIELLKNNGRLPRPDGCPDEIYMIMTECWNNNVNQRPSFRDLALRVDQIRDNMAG
Sequence of JAK3 (P52333 813-1124 limits assumed): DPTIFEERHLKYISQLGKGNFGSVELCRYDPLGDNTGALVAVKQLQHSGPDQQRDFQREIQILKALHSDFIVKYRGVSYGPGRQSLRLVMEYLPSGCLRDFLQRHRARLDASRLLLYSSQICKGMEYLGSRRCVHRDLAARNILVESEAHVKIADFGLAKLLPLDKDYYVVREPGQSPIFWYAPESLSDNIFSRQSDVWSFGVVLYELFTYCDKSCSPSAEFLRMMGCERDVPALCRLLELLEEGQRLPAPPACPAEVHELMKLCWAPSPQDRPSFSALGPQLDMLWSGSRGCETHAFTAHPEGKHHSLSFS

Structure (SMILES) | inhibition at 0.1 µM (FLT3-ITD [3]) | IC50 (MV4–11 [4]; [9]) | AML cell growth inhibition (MV4–11 [4]) | further results
Nc1ncc(-c2ccncc2)nc1Nc1ccc2[nH]ccc2c1 [AKN-028] | – | – | – | effect on cell cycle (MV4–11 [6]): induce arrest in the G0/1 phase
Cc1n[nH]cc1-c1nc2ccc3[nH]ncc3c2c2c1CCCC2 [Compound 9] | 54% | 61.5 nM | potent inhibitors of AML proliferation | IC50 (Molm14; [8]): 64.1 nM; IC50 [5, 10]: 86.7 nM
FC(F)(F)c1cc(-c2nc3ccc4[nH]ncc4c3c3c2CCCC3)n[nH]1 [Compound 13] | 5% | > 5000 nM | inactive even at 1000 nM | –
CO[C@@H]1[C@H](N(C)C(=O)c2ccccc2)C[C@H]2O[C@]1(C)n1c3ccccc3c3c4c(c5c6ccccc6n2c5c31)C(=O)NC4 [PKC412 (midostaurin), midostaurin] | – | – | – | effect on cell cycle (MV4–11 [6]): did not affect cell cycle pattern; effect on cell cycle (Molm13): did not affect cell cycle pattern
NC1CCc2c(c(-c3c[nH]nc3C(F)(F)F)nc3ccc4[nH]ncc4c23)C1 (stereo not drawn) [Compound 7] | 71% | 132 nM | less active | –
C[C@H]1CC[C@H](n2c3cnccc3c3cnc(Nc4ccc5c(n4)CCN(C(=O)CO)C5)nc32)CC1 [AMG 925] | – | – | – | effect on cell cycle (Molm13): induce arrest in the G0/1 phase
CCc1nc(C(N)=O)c(Nc2ccc(N3CCC(N4CCN(C)CC4)CC3)c(OC)c2)nc1NC1CCOCC1 [gilteritinib] | – | – | – | IC50 (c-Kit): 230 nM
c1ccc(-c2n[nH]cc2-c2nc3ccc4[nH]ncc4c3c3c2CCCC3)cc1 [Compound 14] | 26% | 1450 nM | – | –
CC1(COc2ccc3c(c2)ncn3-c2ccc3cccc(N4CCC(N)CC4)c3n2)COC1 [Crenolanib, crenolanib] | – | – | – | IC50 (FLT3 D835Y): 6.9 nM; Kd (ABL1-nonphosphorylated): 140 nM; Kd (ABL1-phosphorylated): 430 nM
c1[nH]nnc1-c1nc2ccc3[nH]ncc3c2c2c1CCCC2 [Compound 12] | 56% | 154 nM | not as active as HSD1169 | –

Continued, in another order:

inhibition at 0.1 µM (FLT3-ITD [3]) | IC50 (MV4–11 [4]; [9]) | Structure (SMILES) | AML cell growth inhibition (MV4–11 [4]) | further results
80% | 5 nM | FC(F)(F)c1n[nH]cc1-c1nc2ccc3[nH]ncc3c2c2c1CCCC2 [HSD1169] | potent inhibitors of AML proliferation | effect on cell cycle (MV4–11 [1]): dose-dependent increase in the percentage of cells in the G0/1 phase; phosphorylation of STAT5 (western blot, words) (phospho-STAT5): inhibited the phosphorylation of STAT5; inhibition at 0.5 µM (FLT3): > 90%; IC50 [2]: 620 to 1860 nM; inhibition at 0.5 µM (JAK3): > 90%; TOPK protein level (western blot, words) (TOPK): reduction of TOPK protein in a dose-dependent manner; IC50 (Molm14; [8]): 5 nM; IC50 (Molm14; read-out: IC50 Molm14, 72 h, listed as 4 (HSD1169)): 4.9 nM; TOPK mRNA level (TOPK mRNA): downregulation of TOPK mRNA; IC50 (MV4–11 [4]; read-out: IC50 MV4–11, 72 h, listed as 4 (HSD1169)): 5.4 nM; IC50 [5, 10]: 5 nM; IC50 ([5]; read-out: IC50 Molm13-res, listed as 4 (HSD1169)): 5.1 nM; inhibition at 0.5 µM (JAK2): > 90%; inhibition at 0.5 µM (MKNK2): > 90%
8% | 898 nM | FC(F)(F)c1n[nH]cc1-c1nc2ccc3[nH]ccc3c2c2c1CCCC2 [Compound 19] | did not inhibit FLT3 enzymatic activity or AML cell growth | FLT3 enzymatic inhibition (FLT3-ITD [7]): did not inhibit FLT3 enzymatic activity
19% | 772 nM | c1cc(-c2n[nH]cc2-c2nc3ccc4[nH]ncc4c3c3c2CCCC3)cs1 [Compound 17] | inactive compounds | –
6% | 1300 nM | c1cncc(-c2n[nH]cc2-c2nc3ccc4[nH]ncc4c3c3c2CCCC3)c1 [Compound 15] | inactive compounds | –
27% | 1390 nM | OCCn1cc(-c2nc3ccc4[nH]ncc4c3c3c2CCCC3)cn1 [Compound 20] | inactive compounds | –
